Columns and labels:
various receptors = conditions: R-isomer compared with S-isomer; cited from earlier work
[1] = Exploration of parameters: stability of norepinephrine formulations in 0.9% sodium chloride pre and post terminal sterilization; assay type: physicochemical
Description: Formulation parameters, such as antioxidant concentration and solution pH, were evaluated. Lab-scale batches were prepared and filled into containers through cut corners (resealed). Containers were subsequently vacuum sealed into overpouches. All formulations were prepared in 0.9% sodium chloride. Oxygen levels were controlled by preparing samples within a glove box under N2 atmosphere. Replicates were tested pre and post sterilization. Runs were evaluated by O2 content (head space and solution), pH, concentration of analyte and related compounds, enantiomeric purity, amount of antioxidant, and “visual inspection.”
Nineteen formulations were prepared in accordance with the table above.

[2] = cited from earlier work

Structure (SMILES) | affinity to various receptors / pharmaceutical activity (various receptors) | rate of epimerization to the S-isomer ([1]; higher pH values) | rate of norepinephrine oxidation ([1]; lower pH values) | solubility in acidic solutions ([2]; acidic solutions) | solubility in alcohols and ethers ([2]; alcohols and ethers) | solubility in water ([2]; water)
NC[C@H](O)c1ccc(O)c(O)c1 (single isomer, unassigned) [R-isomer] | higher affinity | – | – | – | – | –
NC[C@@H](O)c1ccc(O)c(O)c1 (single isomer, unassigned) [S-isomer] | negligible pharmaceutical activity | – | – | – | – | –
NC[C@H](O)c1ccc(O)c(O)c1 [norepinephrine] | – | decreased the rate of epimerization to the S-isomer | decreased the rate of norepinephrine oxidation | readily soluble | slightly soluble | sparingly soluble

From patent US12714681B2, “Packaged, sealed container system for stable storage of an oxygen sensitive pharmaceutical formulation” (Baxter International Inc., priority 2020, dated 2026)
